Where two headings read alike, the source gives them in different places. Starred links: 1 amine or outer side, 2 acyl side, 3 side chain; linkers in the order of their positions; H or OH if unused. Non-standard residues stand in square brackets, D forms with d. Residues, ends and D or L forms follow the SMILES beside them. Groups on a side chain read outwards from the residue. *: point of attachment. C20 diacid = O=C(O)CCCCCCCCCCCCCCCCCCC(=O)*; Pro(cis-4-F) = O=C(O)[C@@H]1C[C@H](F)CN1; γGlu = O=C(O)[C@H](CCC(=O)[*:2])N[*:1]; NMeI = CC[C@H](C)[C@H](NC)C(=O)O; Nle = CCCC[C@H](N)C(=O)O; Ac5c = NC1(C(=O)O)CCCC1; AEEA = NCCOCCOCC(=O)O; Aib = CC(C)(N)C(=O)O
Key:
hCRHR2 = biological target: T1, hCRHR2 (Homo sapiens, UniProt Q13324); test: HTRF cAMP assay, determination of hCRHR2 potency (peptide libraries 5 conc., purified peptides 11 conc.); type: cell-based
T1 sequence (Q13324 1-411): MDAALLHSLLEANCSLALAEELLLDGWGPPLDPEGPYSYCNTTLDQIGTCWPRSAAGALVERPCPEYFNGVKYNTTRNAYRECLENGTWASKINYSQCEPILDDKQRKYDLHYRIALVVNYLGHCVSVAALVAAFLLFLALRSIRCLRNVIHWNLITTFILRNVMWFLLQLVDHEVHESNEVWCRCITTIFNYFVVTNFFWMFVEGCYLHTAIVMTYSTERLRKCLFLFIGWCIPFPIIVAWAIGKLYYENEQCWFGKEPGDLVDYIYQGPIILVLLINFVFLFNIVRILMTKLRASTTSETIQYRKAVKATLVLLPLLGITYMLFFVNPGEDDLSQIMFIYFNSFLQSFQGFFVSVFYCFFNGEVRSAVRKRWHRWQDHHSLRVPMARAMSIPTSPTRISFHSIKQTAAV
Outline: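 Potency was read as cAMP accumulation in a stable CHO-K1 line expressing human CRHR2, used in suspension right after thawing. Detection relied on energy transfer from antibody-bound cryptate to d2-cAMP.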

hCRHR1 = biological target: T2, hCRHR1 (Homo sapiens, UniProt P34998); test: HTRF cAMP assay, determination of hCRHR1 potency (peptide libraries 5 conc., purified peptides 11 conc.); type: cell-based
T2 sequence (P34998 24-415): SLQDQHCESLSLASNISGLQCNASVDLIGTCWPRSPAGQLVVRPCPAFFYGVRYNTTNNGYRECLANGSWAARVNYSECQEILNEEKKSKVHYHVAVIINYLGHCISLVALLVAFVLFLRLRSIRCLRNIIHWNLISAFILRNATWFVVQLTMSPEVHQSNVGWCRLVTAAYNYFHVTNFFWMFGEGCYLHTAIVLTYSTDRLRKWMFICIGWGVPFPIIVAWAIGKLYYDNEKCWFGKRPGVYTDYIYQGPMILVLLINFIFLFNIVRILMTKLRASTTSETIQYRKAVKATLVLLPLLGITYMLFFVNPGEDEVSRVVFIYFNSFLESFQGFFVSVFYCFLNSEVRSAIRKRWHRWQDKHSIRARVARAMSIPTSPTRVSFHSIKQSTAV
Outline: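 CHO-K1 cells stably expressing human CRHR1, thawed from frozen stocks just before use, were stimulated in suspension with agonist peptides. cAMP was measured by HTRF competitive immunoassay (cryptate anti-cAMP antibody vs d2-cAMP).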

[1] = library peptides, matched molecular pairs L vs Nle in position X^38, read-out: Potency hCRHR2 pEC50 (converted)
[2] = library peptides, matched molecular pairs L vs Nle in position X^38, read-out: Potency hCRHR1 pEC50 (converted)
[3] = Table 3, matched molecular pairs X^38 L vs Nle, peptide library of Example 4, read-out: hCRHR2 pEC50 (converted)
[4] = Table 3, matched molecular pairs X^38 L vs Nle, peptide library of Example 4, read-out: hCRHR1 pEC50 (converted)

Row | SMILES | EC50 (hCRHR2; [1]) | EC50 (hCRHR1; [2]) | EC50 (hCRHR2; [3]) | EC50 (hCRHR1; [4]) | further results
1 | CCCC[C@H](NC(=O)[C@@H](NC(=O)[C@H](CCC(=O)O)NC(=O)[C@H](C)NC(=O)[C@H](CC(N)=O)NC(=O)C(C)(C)NC(=O)[C@H](CCCCNC(=O)COCCOCCNC(=O)COCCOCCNC(=O)CC[C@H](NC(=O)CC[C@H](NC(=O)CCCCCCCCCCCCCCCCCCC(=O)O)C(=O)O)C(=O)O)NC(=O)[C@H](C)NC(=O)[C@H](CCC(N)=O)NC(=O)[C@H](CCC(=O)O)NC(=O)[C@H](CCCNC(=N)N)NC(=O)[C@H](C)NC(=O)[C@H](C)NC(=O)[C@H](CCCNC(=N)N)NC(=O)[C@H](C)NC(=O)[C@H](CCCNC(=N)N)NC(=O)[C@H](C)NC(=O)[C@H](CCC(N)=O)NC(=O)[C@H](C)NC(=O)[C@H](CC(C)C)NC(=O)[C@H](CC(C)C)NC(=O)[C@@H](NC(=O)[C@H](CCC(N)=O)NC(=O)[C@H](CC(C)C)NC(=O)[C@H](CC(C)C)NC(=O)CNC(=O)[C@@H](NC(=O)[C@@H]1CCCN1C(=O)[C@@H](NC(=O)[C@H](CC(=O)O)NC(=O)[C@H](CC(C)C)NC(=O)[C@H](CO)NC(=O)[C@H](CC(C)C)NC(=O)[C@@H](NC(=O)[C@@H](NC)[C@@H](C)CC)C(C)C)C(C)C)[C@@H](C)CC)[C@@H](C)CC)[C@@H](C)CC)C(=O)N[C@@H](C)C(=O)N[C@@H](CCC(=O)O)C(=O)N[C@H](C(N)=O)C(C)C [compound 119] (H-[NMeI]VLSLDVPIGLLQILLAQARARAAREQAK([AEEA-AEEA-γGlu-γGlu-C20 diacid])[Aib]NAEI[Nle]AEV-NH2) |  |  |  |  | EC50 (hCRHR2; Table 4, library peptides having X^38 = Nle, read-out: hCRHR2 pEC50 (converted)): 0.02 nM; EC50 (hCRHR1; Table 4, library peptides having X^38 = Nle, read-out: hCRHR1 pEC50 (converted)): 1000 nM
2 | CCCC[C@H](NC(=O)[C@@H](NC(=O)[C@H](CCC(=O)O)NC(=O)[C@H](C)NC(=O)[C@H](CC(N)=O)NC(=O)[C@@H](NC(=O)[C@H](CCCCNC(=O)COCCOCCNC(=O)COCCOCCNC(=O)CC[C@H](NC(=O)CC[C@H](NC(=O)CCCCCCCCCCCCCCCCCCC(=O)O)C(=O)O)C(=O)O)NC(=O)[C@H](C)NC(=O)[C@H](CCC(N)=O)NC(=O)[C@H](CCC(=O)O)NC(=O)[C@H](CCCNC(=N)N)NC(=O)[C@H](C)NC(=O)[C@H](C)NC(=O)[C@H](CCC(N)=O)NC(=O)[C@H](C)NC(=O)[C@H](CCCNC(=N)N)NC(=O)[C@H](C)NC(=O)[C@H](CCC(N)=O)NC(=O)[C@H](CCC(=O)O)NC(=O)[C@H](CC(C)C)NC(=O)[C@H](CC(C)C)NC(=O)[C@@H](NC(=O)[C@H](CCC(N)=O)NC(=O)[C@H](CC(C)C)NC(=O)[C@H](CC(C)C)NC(=O)CNC(=O)[C@@H](NC(=O)[C@@H]1CCCN1C(=O)[C@@H](NC(=O)[C@H](CC(=O)O)NC(=O)[C@H](CC(C)C)NC(=O)[C@H](CO)NC(=O)[C@H](CC(C)C)NC(=O)[C@@H](NC(=O)[C@@H](N)[C@@H](C)CC)C(C)C)C(C)C)[C@@H](C)CC)[C@@H](C)CC)[C@@H](C)O)[C@@H](C)CC)C(=O)N[C@@H](C)C(=O)N[C@@H](CCC(=O)O)C(=O)N[C@H](C(N)=O)[C@@H](C)CC [SEQ ID NO: 44] (H-IVLSLDVPIGLLQILLEQARAQAAREQAK([AEEA-AEEA-γGlu-γGlu-C20 diacid])TNAEI[Nle]AEI-NH2) |  |  | 0.1 nM | 1260 nM | 
3 | CCCC[C@H](NC(=O)[C@@H](NC(=O)[C@H](CCC(=O)O)NC(=O)[C@H](C)NC(=O)[C@H](CC(N)=O)NC(=O)[C@@H](NC(=O)[C@H](CCCCNC(=O)COCCOCCNC(=O)COCCOCCNC(=O)CC[C@H](NC(=O)CC[C@H](NC(=O)CCCCCCCCCCCCCCCCCCC(=O)O)C(=O)O)C(=O)O)NC(=O)[C@H](C)NC(=O)[C@H](CCC(N)=O)NC(=O)[C@H](CCC(=O)O)NC(=O)[C@H](CCCNC(=N)N)NC(=O)[C@H](C)NC(=O)[C@H](CO)NC(=O)[C@H](CCCNC(=N)N)NC(=O)[C@H](C)NC(=O)[C@H](CCCNC(=N)N)NC(=O)[C@H](C)NC(=O)[C@H](CCC(N)=O)NC(=O)[C@H](CCC(=O)O)NC(=O)[C@H](CC(C)C)NC(=O)[C@H](CC(C)C)NC(=O)[C@@H](NC(=O)[C@H](CCC(N)=O)NC(=O)[C@H](CC(C)C)NC(=O)[C@H](CC(C)C)NC(=O)CNC(=O)[C@@H](NC(=O)[C@@H]1CCCN1C(=O)[C@@H](NC(=O)[C@H](CC(=O)O)NC(=O)[C@H](CC(C)C)NC(=O)[C@H](CO)NC(=O)[C@H](CC(C)C)NC(=O)[C@@H](NC(=O)[C@@H](N)[C@@H](C)CC)C(C)C)C(C)C)[C@@H](C)CC)[C@@H](C)CC)[C@@H](C)O)[C@@H](C)CC)C(=O)N[C@@H](C)C(=O)N[C@@H](CCC(=O)O)C(=O)N[C@H](C(N)=O)[C@@H](C)CC [SEQ ID NO: 36] (H-IVLSLDVPIGLLQILLEQARARSAREQAK([AEEA-AEEA-γGlu-γGlu-C20 diacid])TNAEI[Nle]AEI-NH2) |  |  | 0.158 nM | 5010 nM | 

Second part, led by results:

Row | EC50 (hCRHR2; [1]) | EC50 (hCRHR1; [2]) | EC50 (hCRHR2; [3]) | EC50 (hCRHR1; [4]) | SMILES | further results
4 | 0.631 nM | 3.16 nM |  |  | CC[C@H](C)[C@H](N)C(=O)N[C@H](C(=O)N[C@@H](CC(C)C)C(=O)N[C@@H](CO)C(=O)N[C@@H](CC(C)C)C(=O)N[C@@H](CC(=O)O)C(=O)NC1(C(=O)N2C[C@@H](F)C[C@H]2C(=O)N[C@H](C(=O)NCC(=O)N[C@@H](CC(C)C)C(=O)N[C@@H](CC(C)C)C(=O)N[C@@H](CCC(N)=O)C(=O)N[C@H](C(=O)N[C@@H](CC(C)C)C(=O)N[C@@H](CC(C)C)C(=O)N[C@@H](CCC(=O)O)C(=O)N[C@@H](CCC(N)=O)C(=O)N[C@@H](C)C(=O)N[C@@H](CCCNC(=N)N)C(=O)N[C@@H](C)C(=O)N[C@@H](CCCNC(=N)N)C(=O)N[C@@H](C)C(=O)N[C@@H](C)C(=O)N[C@@H](CCCNC(=N)N)C(=O)N[C@@H](CCC(=O)O)C(=O)N[C@@H](CCC(N)=O)C(=O)N[C@@H](C)C(=O)N[C@@H](CCCCNC(=O)COCCOCCNC(=O)COCCOCCNC(=O)CC[C@H](NC(=O)CC[C@H](NC(=O)CCCCCCCCCCCCCCCCCCC(=O)O)C(=O)O)C(=O)O)C(=O)N[C@H](C(=O)N[C@@H](CC(N)=O)C(=O)N[C@@H](C)C(=O)N[C@@H](CCC(=O)O)C(=O)N[C@H](C(=O)N[C@@H](CC(C)C)C(=O)N[C@@H](C)C(=O)N[C@@H](CCC(=O)O)C(=O)N[C@H](C(N)=O)C(C)C)[C@@H](C)CC)[C@@H](C)O)[C@@H](C)CC)[C@@H](C)CC)CCCC1)C(C)C [compound 86] (H-IVLSLD[Ac5c][Pro(cis-4-F)]IGLLQILLEQARARAAREQAK([AEEA-AEEA-γGlu-γGlu-C20 diacid])TNAEILAEV-NH2) | 
5 | 0.398 nM | 20000 nM |  |  | CC[C@H](C)[C@H](N)C(=O)N[C@H](C(=O)N[C@@H](CC(C)C)C(=O)N[C@@H](CO)C(=O)N[C@@H](CC(C)C)C(=O)N[C@@H](CC(=O)O)C(=O)N[C@H](C(=O)N1CCC[C@H]1C(=O)N[C@H](C(=O)NCC(=O)N[C@@H](CC(C)C)C(=O)N[C@@H](CC(C)C)C(=O)N[C@@H](CCC(N)=O)C(=O)N[C@H](C(=O)N[C@@H](CC(C)C)C(=O)N[C@@H](CC(C)C)C(=O)N[C@@H](CCC(=O)O)C(=O)N[C@@H](CCC(N)=O)C(=O)N[C@@H](C)C(=O)N[C@@H](CCCNC(=N)N)C(=O)N[C@@H](C)C(=O)N[C@@H](CCC(N)=O)C(=O)N[C@@H](C)C(=O)N[C@@H](C)C(=O)N[C@@H](CCCNC(=N)N)C(=O)N[C@@H](CCC(N)=O)C(=O)N[C@@H](CCC(N)=O)C(=O)N[C@@H](C)C(=O)N[C@@H](CCCCNC(=O)COCCOCCNC(=O)COCCOCCNC(=O)CC[C@H](NC(=O)CC[C@H](NC(=O)CCCCCCCCCCCCCCCCCCC(=O)O)C(=O)O)C(=O)O)C(=O)N[C@H](C(=O)N[C@@H](CC(N)=O)C(=O)N[C@@H](C)C(=O)N[C@@H](CCC(=O)O)C(=O)N[C@H](C(=O)N[C@@H](CC(C)C)C(=O)N[C@@H](C)C(=O)N[C@@H](CCC(=O)O)C(=O)N[C@H](C(N)=O)C(C)C)[C@@H](C)CC)[C@@H](C)O)[C@@H](C)CC)[C@@H](C)CC)C(C)C)C(C)C [compound 54] (H-IVLSLDVPIGLLQILLEQARAQAARQQAK([AEEA-AEEA-γGlu-γGlu-C20 diacid])TNAEILAEV-NH2) | 
